The results in this text go back to patent US6503909B1, “Pyrazine compounds” (SmithKline Beecham Corporation, priority 1998, dated 2003).

The data set deals with male Han Wistar rats. The data set can be described thus: rat maximal electroshock test (MES). The class given is in vivo. As to the method:
For example, male Han Wistar rats (150-200 grms) were dosed i.p. with a suspension of the test compound in 0.25% methylcellulose 2 hr prior to test. A visual observation was carried out just prior to testing for the presence of ataxia. Using auricular electrodes a current of 200 mA, duration 300 millisec, was applied and the presence or absence of hind limb extension noted.

Each structure is given as a SMILES string.

For `Nc1nnc(-c2cccc(Cl)c2Cl)c(N)n1` [lamotrigine], the ED50 (Rattus norvegicus, ip, dosed i.p. as suspension in 0.25% methylcellulose 2 hr prior to test, 200 mA, 300 millisec, auricular electrodes, read-out: ED50 (MES, hind limb extension)) was determined as 6.1 mg/kg. In addition, the “therapeutic index (ratio of the ataxia ED50 and MES ED50)” value (i.p., 2 hr prior to test, ataxia by visual observation) is 3.3.
